Reference: patent publication US20240391880A1, “KCa3.1 INHIBITORS FOR PODOCYTE PROTECTION” (Icahn School of Medicine at Mount Sinai, priority 2021, published 2024)
Entries after “also recorded” stand apart in the source; their conditions may differ.

Key:
YAP KD podocytes = assay: Intracellular calcium dynamics in YAP KD podocytes (Fluo-3, ATP stimulation); assay type: cell-based, mouse; details: for CaD50 / time to peak of calcium uptake: YAP silenced podocytes, upon ATP stimulation
Description: Intracellular calcium dynamics were measured in wild type and YAP KD podocytes loaded with Fluo-3, stimulated with ATP ([…]) and imaged for 3 minutes at 1 frame per 0.5 seconds on a high-speed Zeiss 880 laser scanning confocal microscope with automated CO2incubator stage.
Isolated cells were superfused with Tyrode solution containing (mm): NaCl 140, KCl
5, Hepes 5, NaH2PO4 1, MgCl2 1, CaCl2 1.8, glucose 10 (pH 7.4). To allow for confocal imaging of [Ca^2+]i, cells were loaded for 30 min with 5 μm fluo-3 AM (Molecular Probes, Eugene, OR, USA), then washed and stored for 20 min in Tyrode solution to enable dye de-esterification. Confocal imaging in line-scan mode was performed on a Zeiss 510 microscope. Cells were scanned with light at 488 nm from an argon-ion laser, and fluorescence above 505 nm was recorded. To generate repeated Ca^2+ sparks at a limited number of locations, 50 nm ryanodine (Calbiochem, San Diego, CA, USA) was added to the external solution.

KCa3.1 [1] = molecular target: T1, KCa3.1 (Homo sapiens, UniProt O15554); assay: Whole-cell patch clamp electrophysiology in KCNN4 overexpression podocytes; assay type: cell-based, mouse; details: KCNN4 OE podocytes
T1 construct: expressed in transfected cells; host or cells: immortalized mouse podocytes (KCNN4 OE)
Description: (§1) Cells plated on coverslips are transferred to a submersion recording chamber and continuously perfused (2-4 ml/min) with RPMI cell culture medium containing (in mM): NaCl 124, KCl 2.5, NaH2PO4 1.2, NaHCO3 24, HEPES 5, glucose 12.5, MgSO4 2, and CaCl2 2, pH 7.4. The solution is continuously bubbled with 95% O2/5% CO2, and recordings are obtained at 25±1° C. Cells are recorded under infrared differential contrast optics (BX51; Olympus). After control readings are measured, the solution is then switched to the solutions containing the molecules. […] Recording pipettes (3-5 MΩ), pulled from borosilicate glass, are filled with internal solution containing (in mM): K gluconate 120, HEPES 10, KCl 20, MgCl2 1, MgATP 2, Na2GTP 0.5, Na-phosphocreatine 10, CaCl2 1.71 and EGTA 2, pH 7.25. Data are acquired with a Multiclamp 700 A amplifier (Molecular Devices), subsequently filtered at 10 kHz and digitized at 10 kHz, and analysis is performed with pClamp 11 software (Molecular Devices). Whole-cell data will be collected. All data will be recorded at room temperature.

KCa3.1 [2] = molecular target: T2, KCa3.1 (Mus musculus, UniProt O89109); assay: Whole-cell patch clamp electrophysiology in YAP silenced podocytes; assay type: cell-based
T2 construct: endogenous in cells; host or cells: YAP shRNA (YAP KD) conditionally immortalized mouse podocytes
Description: as §1

podocytes = assay: LPS-induced podocyte injury in vitro; assay type: cell-based, mouse; details: LPS 100 μg/ml for 24 hrs, co-treatment
Description: (§2) The ability of KCa3.1 inhibitors to protect from podocyte injury induced by lipopolysaccharide (LPS) was tested in vitro and in vivo. […] The protective effect was tested in vivo by administering LPS to 8-week old C57BL/6J mice at 0 hr and 24 hrs.
Differentiated podocytes were exposed to different doses of LPS (50-100 μg/ml) for 24 hours. Changes in the organization of the actin cytoskeleton were assessed by phalloidin staining and paxillin staining as described previously. Each set of experiments was repeated at least three times. Briefly, cells were fixed with 4% PFA, 4% sucrose in PBS at room temperature for 15 minutes and then permeabilized with 0.3% Triton X-100 in PBS with washes in between. Coverslips were washed 3× with PBS and incubated blocking solution (2% FCS, 2% BSA, 0.2% fish gelatin) for 30 minutes at room temperature before further incubation with one of the primary antibodies for 1 hour at room temperature. For double labeling, sections were washed three times with PBS for 5 minutes, and the second primary antibody was applied for 60 minutes. Antigen-antibody complexes were visualized with secondary antibodies 1:500 (Life Technologies) conjugated with fluorochrome (Alexa 488, Alexa 594, or Alexa 647) for 1 hour at room temperature. For stress fibers, phalloidin-rhodamine was used. For the nuclei, we used DAPI. Confocal microscopy with Leica DMI was done.

YAP knockdown podocytes = assay: Rescue of YAP knockdown podocyte morphology (phalloidin/paxillin staining); assay type: cell-based, mouse
Description: Podocytes were cultured as previously described (2, 14, 35). Briefly, conditionally immortalized murine podocytes were cultured in Dulbecco's modified Eagle's medium (DMEM; Life Technologies) supplemented with 10% heat-inactivated fetal bovine serum (Life Technologies) and 100 U/mL penicillin-streptomycin (Life Technologies) on type I collagen (Corning, Corning, NY) coated dishes or flasks. Undifferentiated podocytes were maintained at 33° C. in the presence of 10 U/mL mouse γ-interferon (Cell Sciences, Canton, MA) to drive T-antigen expression. To induce differentiation, podocytes were thermo-shifted to a 37° C. incubator and switched to medium lacking γ-interferon.
The pLKO.1 plasmids (YAP shRNA or control shRNA) along with the helper plasmids psPAX^2 and pMD2.G were transfected into HEK293T cells at 70% confluence using FuGENE 6 (Promega). Medium was replaced 16-18 h after transfection. 36 and 60 h after transfection, virus-containing supernatants were harvested and centrifuged at 3,000 rpm for 5 min. Viral particles were then passed through a 0.45-μm filter. The supernatants were subsequently used for the infection of target cells in the presence of 4 μg/ml Polybrene (Sigma). […]
Changes in the organization of the actin cytoskeleton were assessed by phalloidin staining and paxillin staining as described previously. […]

C57BL/6J mice = assay: LPS-induced glomerular disease in mice; assay type: in vivo, mouse; details: for albuminuria: 48 hours after LPS injection, compound given at 12 hr and 24 hr
Description: as §2
Albuminuria was qualitatively screened using a 10% SDS-PAGE gel followed by Coomassie-blue staining. BSA standards of 0.1, 0.5, 5 μg were used and 5 μl urine was used from each sample to quantify urine albumin in duplicate using commercial kits, according to the manufacturer's protocol (mouse albumin ELISA, Bethyl Laboratories).

[3] = expected K+ equilibrium (VK) calculated at -83 mV

| SMILES | CaD50 (YAP KD podocytes) | time to peak of calcium uptake (YAP KD podocytes) | KCa3.1 conductance (KCa3.1 [1]) | crossover potential of before and after I-V plots (KCa3.1 [1]; [3]) | KCa3.1 conductance (KCa3.1 [2]) | LPS-induced actin cytoskeletal reorganization and loss of focal adhesions (podocytes) | stimuli to peak (YAP KD podocytes; YAP knockdown cells, 5uM and 10 uM) | crossover potential of before and after I-V plots (KCa3.1 [2]; [3]) | rescue from focal adhesion loss and F-actin reorganization (YAP knockdown podocytes) | albuminuria (C57BL/6J mice) | foot process injury (scanning EM) (C57BL/6J mice; LPS treated mice) |
| --- | --- | --- | --- | --- | --- | --- | --- | --- | --- | --- | --- |
| Clc1ccccc1C(c1ccccc1)(c1ccccc1)n1cccn1 [TRAM-34, reference compound] | decreased | decreased | decreased | did cross at the expected K+ equilibrium | decreased | – | – | – | – | – | – |
| Brc1ccccc1-c1nc2ccccc2[nH]1 [BT563, 2-(2-bromophenyl)-1H-benzo[d]imidazole] | decreased | decreased | decreased KCa3.1 conductance | – | decreased KCa3.1 conductance | abrogated | significantly decreased | closer to the expected K+ equilibrium (VK) | most consistently rescued | statistically significant decrease; also recorded: decreased albuminuria | not seen; also recorded: rescue of LPS-induced podocyte foot process disruption |
| Cc1ccn2cc(-c3ccccc3)nc2c1 [BT564, 7-methyl-2-phenylimidazo[1,2-α]pyridine] | decreased | decreased | decreased KCa3.1 conductance | – | decreased KCa3.1 conductance | abrogated | – | – | most consistently rescued | not | – |
| Cc1cc2nc(N)oc2c2ccccc12 [SKA121, reference compound] | – | – | enhanced | – | enhanced | – | – | – | – | – | – |
